The source of these data is publication PMC9965906, “Discovery and Development Strategies for SARS-CoV-2 NSP3 Macrodomain Inhibitors” (Pathogens, 2023).

Where “and” joins values, the source holds several entries; their conditions need not be identical. Equal entries are not always repeated. Structures can show the parent of a compound that is named as a salt. Where two headings read alike, the source gives them in different places.

The target of assay [1] is NSP3 Mac1. To be noted: recognition by NSP3 Mac1; cited from earlier work.
For assay [2], the system named is NSP3 Mac1. Also noted: method as in PMID 35598780. The settings on record: similar set-up using the peptide, AlphaScreen; cited from earlier work. For orientation: Alpha assays give light when donor and acceptor beads are brought close together.
A further assay concerns the target SARS-CoV-2 NSP3 Mac1 (Severe acute respiratory syndrome coronavirus 2, UniProt P0DTD1). In words: biochemical. The format is binding. To be noted: for inhibition at 187 µM: read-out: Inhibition at top screening concentration of 187 µM; for inhibition at 25 µM: BioAscent virtual screening hit compounds; for inhibitory activity in FDA-approved library screen: primary screen at the set screening concentration.

The subject of another assay is MacroD1. To be noted: MacroD1, AlphaScreen-based assay format; cited from earlier work.
Setting [3] is: MIDAS hit compounds and analogues.
Where [4] appears, read: MIDAS hit compounds and analogues, top concentration 125 µM, 8-point 1:1 dilution, duplicate, read-out: IC50.
Setting [5] is: BioAscent hit compounds, confirmatory IC50 curves.
The mark [6] stands for this setting: BioAscent hit compounds, top concentration 187 µM, 8-point 1:1 dilution, duplicate, read-out: IC50.
Setting [7] is: FDA-approved compound library primary screen, 50 µM, single shot.

As to `Nc1ncnc2c1ncn2[C@@H]1O[C@H](COP(=O)(O)OP(=O)(O)OC[C@H]2OC(O)[C@H](O)[C@@H]2O)[C@@H](O)[C@H]1O` (stereo partly shown) [ADP-ribose], on NSP3 Mac1 [1], the Kd (as a rule, the constant that tells how readily two partners part at equilibrium) is 13 µM. Besides, in the assay on NSP3 Mac1 [2], the half-inhibitory concentration (IC50) (as a rule, the point on the concentration scale where inhibition reaches its midpoint) was 1.5 µM. Take `CCNC(=O)c1ccc(-c2ccnc3c2ccn3C)o1` [IAL-MD0147, O=C(NCC)C1=CC=C(C2=C3C(N(C)C=C3)=NC=C2)O1]: the “Inhibition at top concentration of 125 µM (%)” value on SARS-CoV-2 NSP3 Mac1 (setting [3]) is on record as “Not measurable due to compound precipitation”. In addition, at SARS-CoV-2 NSP3 Mac1 (setting [4]), the 50% inhibitory concentration (IC50) stood at 6.8 µM. The corresponding values for `CCCNC(=O)c1ccc(-c2ccnc3c2ccn3C)o1` [IAL-MD0148, O=C(NCCC)C1=CC=C(C2=C3C(N(C)C=C3)=NC=C2)O1] are “Not measurable due to compound precipitation” and 7.7 µM. Consider `CC(=O)c1ccc(-c2ccc(N)cc2)s1` [IAL-MD0305, CC(=O)c1ccc(-c2ccc(N)cc2)s1], for which, on SARS-CoV-2 NSP3 Mac1 (BioAscent hit compounds), the inhibition at 187 µM amounted to 63.1%. Moreover, the Hill slope (usually a measure of the steepness of the concentration-response curve) on SARS-CoV-2 NSP3 Mac1 (setting [5]) is on record as 0.6. The IC50 on SARS-CoV-2 NSP3 Mac1 (setting [6]) stood at 28 µM. Moreover, at SARS-CoV-2 NSP3 Mac1 (duplicate), the inhibition at 25 µM was 56.2%. On to `COc1cc2c(cc1/C=C/C(=O)O)OC(C)C2` (stereo not shown) [IAL-MD0306, COc1cc2c(cc1/C=C/C(=O)O)OC(C)C2], for which the inhibition at 187 µM at SARS-CoV-2 NSP3 Mac1 (BioAscent hit compounds) was determined as 81.3%. The Hill slope at SARS-CoV-2 NSP3 Mac1 (setting [5]) is 0.8. Moreover, at SARS-CoV-2 NSP3 Mac1 (setting [6]), the half-inhibitory concentration (IC50) came to 18 µM. For the same compound, the inhibition at 25 µM against SARS-CoV-2 NSP3 Mac1 (duplicate) stood at 63.7%.

With `C=C1c2cccc(O)c2C(=O)C2=C(O)[C@]3(O)C(=O)C(C(N)=O)=C(O)[C@@H](N(C)C)[C@@H]3[C@@H](O)[C@H]12` [Methacycline hydrochloride, reference compound], at SARS-CoV-2 NSP3 Mac1 (setting [7]), the “NSP3 Mac1 inhibition at 50 µM (%)” value is 87% and the inhibition at 50 µM stood at 86.8%. The “outcome of dose-response titration” value on SARS-CoV-2 NSP3 Mac1 (FDA-approved hit compounds, top concentration 125 µM) is given as “strong assay interference”.

With `O=C1c2c(O)ccc(O)c2C(=O)c2c(NCCNCCO)ccc(NCCNCCO)c21` [Mitoxantrone hydrochloride, reference compound], the IC50 at SARS-CoV-2 NSP3 Mac1 (FDA-approved hit compounds re-supplied, top concentration 125 µM, read-out: IC50) was 14.1 µM and ~14 µM. As to `NC(=O)c1ccc[n+]([C@@H]2O[C@H](COP(=O)([O-])OP(=O)(O)OC[C@H]3O[C@@H](n4cnc5c(N)ncnc54)[C@H](O)[C@@H]3O)[C@@H](O)[C@H]2O)c1` [Nadide, reference compound], on SARS-CoV-2 NSP3 Mac1 (setting [7]), the “NSP3 Mac1 inhibition at 50 µM (%)” value was found to be 100% and the inhibition at 50 µM was determined as 99.9%. Turning to `CN1CCCN=C1/C=C/c1cccc(O)c1` [Oxantel pamoate, reference compound], on SARS-CoV-2 NSP3 Mac1, the half-maximal inhibitory concentration (IC50) was 11.7 µM and 12 µM. At SARS-CoV-2 NSP3 Mac1 (setting [7]), the “NSP3 Mac1 inhibition at 50 µM (%)” value was determined as 56% and the inhibition at 50 µM is 55.9%. This compound returned a Hill slope on SARS-CoV-2 NSP3 Mac1 (FDA-approved hit compounds, confirmatory HTRF assays) of 1.34. `CC(=O)[O][Hg][c]1ccccc1` [Phenylmercuric acetate, reference compound]: the “NSP3 Mac1 inhibition at 50 µM (%)” value on SARS-CoV-2 NSP3 Mac1 is 58.1%.

In the case of `C=CC1=C(C)c2cc3[nH]c(cc4nc(cc5[nH]c(cc1n2)c(C)c5CCC(=O)O)C(CCC(=O)O)=C4C)c(C)c3C=C` [Protoporphyrin IX, reference compound], the inhibition at 50 µM against SARS-CoV-2 NSP3 Mac1 (setting [7]) came to 75%. On to `O=C(O)c1cc(O)c2c(c1)[C@H]([C@H]1c3cc(C(=O)O)cc(O)c3C(=O)c3c(O[C@@H]4O[C@H](CO)[C@@H](O)[C@H](O)[C@H]4O)cccc31)c1cccc(O[C@@H]3O[C@H](CO)[C@@H](O)[C@H](O)[C@H]3O)c1C2=O` [Sennoside A, reference compound], for which, on SARS-CoV-2 NSP3 Mac1 (setting [7]), the “NSP3 Mac1 inhibition at 50 µM (%)” value came out at 112% and the inhibition at 50 µM came out at 112%. As to `Nc1ccc(S(=O)(=O)[O-])cc1.Nc1ccc(S(=O)(=O)[O-])cc1.O.O.O.O.[Zn+2]` [Sulfanilate zinc, reference compound], on SARS-CoV-2 NSP3 Mac1 (setting [7]), the “NSP3 Mac1 inhibition at 50 µM (%)” value worked out at 44.2%. Consider `Cc1ccc(C(=O)Nc2ccc(S(=O)(=O)O)c3cc(S(=O)(=O)O)cc(S(=O)(=O)O)c23)cc1NC(=O)c1cccc(NC(=O)Nc2cccc(C(=O)Nc3cc(C(=O)Nc4ccc(S(=O)(=O)O)c5cc(S(=O)(=O)O)cc(S(=O)(=O)O)c45)ccc3C)c2)c1` [Suramin hexasodium, reference compound], for which the inhibition at 50 µM on SARS-CoV-2 NSP3 Mac1 (setting [7]) came out at 55.8%. The “inhibitory activity in FDA-approved library screen” value (“inhibitory activity” for short) on SARS-CoV-2 NSP3 Mac1 is given as “confirm the inhibitory activity”. For the compound `C[CH2][Hg][S]c1ccccc1C(=O)[O-].[Na+]` [Thimerosal, reference compound], the IC50 with MacroD1 is 5.2 µM. In the case of `C=CCCCCCCCCC(=O)[O-].C=CCCCCCCCCC(=O)[O-].[Zn+2]` [Zinc undecylenate, reference compound], on SARS-CoV-2 NSP3 Mac1 (setting [7]), the “NSP3 Mac1 inhibition at 50 µM (%)” value is 68.0%. Turning to `Nc1ncnc2[nH]cnc12` [adenine, reference compound], at SARS-CoV-2 NSP3 Mac1, the “inhibitory activity” value is “did not show any inhibitory activity”. Still for that read-out and setting: then `N[C@@H](C(=O)N[C@@H]1C(=O)N2C(C(=O)O)=C(Cl)CS[C@H]12)c1ccccc1` [cefaclor, reference compound], with “could yet not measure any inhibitory activity”; and `NNc1nncc2ccccc12` [hydralazine, reference compound], with “no NSP3 Mac1 inhibition”; and `O=C(O)CCc1nc(-c2ccccc2)c(-c2ccccc2)o1` [oxaprozin, reference compound], with “could not be identified in our screen”. `COCCCOc1ccnc(C[S+]([O-])c2nc3ccccc3[nH]2)c1C` (stereo not shown) [rabeprazole, reference compound]: at SARS-CoV-2 NSP3 Mac1, the “inhibitory activity” value is recorded as “could yet not measure any inhibitory activity”.

With `CCCc1nc2c(C)cc(-c3nc4ccccc4n3C)cc2n1Cc1ccc(-c2ccccc2C(=O)O)cc1` [telmisartan, reference compound], the “inhibitory activity” value at SARS-CoV-2 NSP3 Mac1 is recorded as “could yet not measure any inhibitory activity”. With Candicidin [reference compound], the “NSP3 Mac1 inhibition at 50 µM (%)” value on SARS-CoV-2 NSP3 Mac1 (setting [7]) is 50.1%; at SARS-CoV-2 NSP3 Mac1 (FDA-approved compound library primary screen, 50 µM, single shot, listed as candicidin) it was 50%.

In the case of “Chlorophyllide Cu complex Na salt [reference compound]”, the “NSP3 Mac1 inhibition at 50 µM (%)” value is given as 106.7% at SARS-CoV-2 NSP3 Mac1 (setting [7]) and 106% on SARS-CoV-2 NSP3 Mac1 (FDA-approved compound library primary screen, 50 µM, single shot, listed as chlorophyllide–copper complex).
